Experimental data: PubChem BioAssay (NCI)
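Dose response: 5 concentrations. Exposure: 48 h. Format: 96-well plates. Endpoint: linear interpolation; highest concentration if not reached. The concentration for full growth arrest is given as TGI.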

Key:
Test in all cases: NCI-60 cell line screen, 48 h
NCI-H460 lung = system: NCI-H460 lung
HCT-116 colon = system: HCT-116 colon
EKVX NSCLC = system: EKVX NSCLC
DU-145 prostate = system: DU-145 prostate
HL-60(TB) leukemia = system: HL-60(TB) leukemia
SN12C renal = system: SN12C renal
SF-295 CNS = system: SF-295 CNS
U251 CNS = system: U251 CNS
SK-MEL-2 melanoma = system: SK-MEL-2 melanoma
SK-MEL-5 melanoma = system: SK-MEL-5 melanoma
OVCAR-8 ovarian = system: OVCAR-8 ovarian
SK-OV-3 ovarian = system: SK-OV-3 ovarian
SF-539 CNS = system: SF-539 CNS
PC-3 prostate = system: PC-3 prostate
HCT-15 colon = system: HCT-15 colon
IGROV1 ovarian = system: IGROV1 ovarian

| SMILES | TGI (NCI-H460 lung) [µM] | TGI (HCT-116 colon) [µM] | TGI (EKVX NSCLC) [µM] | TGI (DU-145 prostate) [µM] | TGI (HL-60(TB) leukemia) [µM] | TGI (SN12C renal) [µM] | TGI (SF-295 CNS) [µM] | TGI (U251 CNS) [µM] | TGI (SK-MEL-2 melanoma) [µM] | TGI (SK-MEL-5 melanoma) [µM] | TGI (OVCAR-8 ovarian) [µM] | TGI (SK-OV-3 ovarian) [µM] | TGI (SF-539 CNS) [µM] | TGI (PC-3 prostate) [µM] | TGI (HCT-15 colon) [µM] | TGI (IGROV1 ovarian) [µM] |
| --- | --- | --- | --- | --- | --- | --- | --- | --- | --- | --- | --- | --- | --- | --- | --- | --- |
| O=C1C=CC(=O)c2c(O)c(Nc3ccc(OC(F)(F)F)cc3)c(Cl)c(O)c21 | 3.6 | 0.455 | 2.17 | 1.37 | 3.24 | 1.17 | 4.62 | 2.05 | 3.48 | 5.15 | 8.25 | 3.19 | 3.36 | 9.62 | 1.44 |  |
| CCOC(=O)c1c(SCC#N)n(-c2ccccc2)c(=S)n(-c2ccccc2)c1=O | > 100 | > 100 | > 100 | > 100 | > 100 | > 100 | > 100 | > 100 | > 100 | > 100 | > 100 | > 100 |  | > 100 | > 100 | > 100 |
| Cc1ccc(-c2n[nH]c(CC#N)n2)cc1 | > 100 | > 100 | > 100 | > 100 | > 100 | > 100 | > 100 | > 100 | > 100 | > 100 | > 100 | > 100 | > 100 | > 100 | > 100 | > 100 |
| Cn1c2nc(=Nc3ccc(Cl)cc3)n3ccc4ccccc4c3c2c(=O)n1-c1ccccc1 | > 100 | > 100 | > 100 | > 100 | > 100 | > 100 | > 100 | > 100 | > 100 | > 100 | > 100 |  |  | > 100 | > 100 | > 100 |
| CCOC(=O)C1C(=O)CC(C)(O)C(C(=O)OCC)C1c1ccc(O)c(OC)c1 (stereo not drawn) | > 100 | > 100 | > 100 | > 100 | > 100 | > 100 | > 100 | > 100 | > 100 | > 100 | > 100 |  |  | > 100 | > 100 | > 100 |
| CC1=CC(=O)c2cccc(O)c2C1=O | 18.9 | 3.49 | 8.68 | 20.6 | 9.13 | 5.11 | 27.7 | 30.2 | 4.57 | 3.29 | 15.4 | 27.4 | 12.3 | 5.7 | 3.04 | 26 |
| O=C1c2ccccc2C(=O)c2[nH]c(=O)c(/C=N/Nc3ccc([N+](=O)[O-])cc3)nc21 | 4.18 | > 73.1 | > 73 | 2.88 |  | 37.2 | 12.4 | > 37.6 | 12.1 | 2.82 | > 50.7 | > 47.3 | 19.2 | > 57.9 | > 38.8 | > 48.8 |
| O=c1[nH]ncc2[nH]c3c(c12)CCCc1ccccc1-3 | > 100 | > 100 | 51.7 | > 100 | > 100 | > 100 | > 100 | > 100 | > 100 | > 100 | > 100 | > 100 | > 100 | > 100 | > 100 | > 100 |
| COc1ccc(OC)c2c1C(=O)C(Cl)=C(Cl)C2=O | 44.3 | 3.86 | 21.9 | 37.6 | > 100 | 23.1 | 38.6 | 38.9 | 8.73 | 14.1 | 18.3 | 67.4 | 11.6 | 27.6 | 10.7 | 31.1 |
| Oc1ccc2ccccc2c1N=Nc1ccc(N=Nc2ccccc2)cc1 |  | > 100 | > 100 | > 100 | 12 | > 100 | > 100 | > 100 | > 100 | > 100 | > 100 | > 100 |  | > 100 | > 100 | > 100 |
| COC(=O)[C@@H]1C[C@H]2[C@H](c3ccccc3Br)[C@@H](OC(C)=O)[C@@H](OCc3ccccc3)ON2O1 | > 100 | > 100 | > 100 | > 100 |  | > 100 | > 100 | > 100 | > 100 | > 100 | > 100 | > 100 | > 100 | > 100 | > 100 | > 100 |
| Nc1nonc1-c1noc(-c2nonc2N)[n+]1[O-] | > 100 | > 100 | 82.8 | > 100 |  | > 100 | > 100 | > 100 | > 100 | > 100 |  | > 100 |  | > 100 | 49.1 | > 100 |
| C[C@@H]1O[C@@H]2OCC[C@@H]2C2=C1C(=O)c1ccccc1C2=O | 31.9 |  | 39.9 | 21 | 19.1 | 29.8 | 33 | 29.5 | 25.7 | 19.2 | > 100 | 89.9 | 22.3 | > 100 | 44.5 | 10.8 |
| O=C(Nc1ccccc1)N1CC(CN2CCN(c3ccccc3)CC2)OC1=O (stereo not drawn) | > 100 | > 100 | > 100 | > 100 | > 100 | > 100 | > 100 | > 100 | > 100 | > 100 |  | > 100 |  | > 100 | > 100 | > 100 |
| c1ccc(N=C2SC(c3ccccc3)CN2C23CC4CC(CC(C4)C2)C3)cc1 (stereo not drawn) | > 100 | > 100 | > 100 | > 100 | > 100 | > 100 | > 100 | > 100 | > 100 | > 100 | > 100 |  | > 100 | > 100 | > 100 | > 100 |
